Structures are written as SMILES.

Test [1] addresses T1, HiBit-BRG1 fusion protein in stable HeLa cell line expressing HiBit-BRG1 and LgBit (Homo sapiens, UniProt P51532).
T1 construct: expressed in transfected cells
Kind of test: HiBiT-BRG1 cell-based degradation assay (Nano-Glo HiBiT, 24 h). The settings on record: HeLa HiBit-BRG1/LgBit cells; for Dmax: top dose 30 μM, read-out: BRG1 HiBit Degradation Maximum (%); for DC50: read-out: BRMG1 HiBit Degradation IC50. The essentials:
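Stable HeLa line co-expressing HiBiT-BRG1 and LgBiT, compound-treated 24 h; luminescence read after Nano-Glo HiBiT lytic reagent. % degradation normalised between DMSO (high control) and 2 μM reference BRM/BRG1 degrader (low control).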

Test [2] addresses T2, HiBiT-BRM fusion protein in stable HeLa cell line (Homo sapiens, UniProt P51531).
T2 construct: expressed in transfected cells
Put plainly: HiBiT-BRM cell-based degradation assay (Nano-Glo HiBiT Lytic Detection, 24 h). Details: DC50: scale not given here. The note with it: HeLa HiBiT-BRM cells; for DC50: read-out: BRM HiBit Degradation IC50; for BRM HiBit Degradation Maximum (%): top dose 30 μM. Put shortly: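 Stable HiBiT-BRM HeLa cells treated 24 h with 10-point 3-fold dilutions, top final dose 30 μM, in duplicate. Luminescence read after lytic LgBiT reagent. Percent degradation was normalised to DMSO (high control) and 2 μM reference BRM/BRG1 degrader (low control).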

T1 sequence (P51532 whole entry, the tested form may be a part): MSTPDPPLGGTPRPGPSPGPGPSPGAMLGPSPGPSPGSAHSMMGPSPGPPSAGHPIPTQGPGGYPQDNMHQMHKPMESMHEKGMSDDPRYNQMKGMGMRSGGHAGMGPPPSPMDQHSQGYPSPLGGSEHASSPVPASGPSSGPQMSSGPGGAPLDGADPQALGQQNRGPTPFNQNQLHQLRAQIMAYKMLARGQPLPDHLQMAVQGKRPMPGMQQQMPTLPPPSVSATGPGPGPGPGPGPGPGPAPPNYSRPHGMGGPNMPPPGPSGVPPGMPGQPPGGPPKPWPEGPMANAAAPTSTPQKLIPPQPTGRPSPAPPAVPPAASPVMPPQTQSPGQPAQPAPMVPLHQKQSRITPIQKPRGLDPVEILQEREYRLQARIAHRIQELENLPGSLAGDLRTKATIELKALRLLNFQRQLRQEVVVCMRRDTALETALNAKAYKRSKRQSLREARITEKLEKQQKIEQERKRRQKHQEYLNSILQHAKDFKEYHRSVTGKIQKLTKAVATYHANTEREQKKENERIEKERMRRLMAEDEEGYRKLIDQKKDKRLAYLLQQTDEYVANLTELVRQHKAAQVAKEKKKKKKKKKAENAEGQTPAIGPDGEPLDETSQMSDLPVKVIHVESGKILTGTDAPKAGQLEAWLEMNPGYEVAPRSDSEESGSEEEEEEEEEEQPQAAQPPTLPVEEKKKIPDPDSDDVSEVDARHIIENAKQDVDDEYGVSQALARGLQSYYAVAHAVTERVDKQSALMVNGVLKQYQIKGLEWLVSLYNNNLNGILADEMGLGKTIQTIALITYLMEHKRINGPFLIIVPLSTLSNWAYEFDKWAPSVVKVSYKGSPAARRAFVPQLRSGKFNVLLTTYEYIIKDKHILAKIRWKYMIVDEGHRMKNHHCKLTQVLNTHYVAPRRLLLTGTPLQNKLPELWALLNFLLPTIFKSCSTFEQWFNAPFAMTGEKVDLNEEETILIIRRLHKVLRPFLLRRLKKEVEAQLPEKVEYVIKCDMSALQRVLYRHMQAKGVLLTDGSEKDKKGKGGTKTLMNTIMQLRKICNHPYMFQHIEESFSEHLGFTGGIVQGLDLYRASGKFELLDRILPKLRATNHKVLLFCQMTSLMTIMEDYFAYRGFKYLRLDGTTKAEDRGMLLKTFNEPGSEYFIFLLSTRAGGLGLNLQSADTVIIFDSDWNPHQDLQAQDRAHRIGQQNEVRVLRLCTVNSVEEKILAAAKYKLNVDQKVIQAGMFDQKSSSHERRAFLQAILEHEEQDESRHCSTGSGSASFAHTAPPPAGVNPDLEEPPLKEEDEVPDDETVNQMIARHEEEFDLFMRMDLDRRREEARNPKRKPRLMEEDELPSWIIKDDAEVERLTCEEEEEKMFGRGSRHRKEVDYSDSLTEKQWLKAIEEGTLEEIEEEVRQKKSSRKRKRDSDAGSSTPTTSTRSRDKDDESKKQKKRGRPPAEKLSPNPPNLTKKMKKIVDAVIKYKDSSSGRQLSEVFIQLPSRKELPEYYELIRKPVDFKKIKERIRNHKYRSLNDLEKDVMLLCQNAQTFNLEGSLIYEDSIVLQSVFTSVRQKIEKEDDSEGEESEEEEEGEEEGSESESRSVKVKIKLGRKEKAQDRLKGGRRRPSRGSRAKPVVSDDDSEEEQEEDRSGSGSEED
T2 sequence (P51531 whole entry, the tested form may be a part): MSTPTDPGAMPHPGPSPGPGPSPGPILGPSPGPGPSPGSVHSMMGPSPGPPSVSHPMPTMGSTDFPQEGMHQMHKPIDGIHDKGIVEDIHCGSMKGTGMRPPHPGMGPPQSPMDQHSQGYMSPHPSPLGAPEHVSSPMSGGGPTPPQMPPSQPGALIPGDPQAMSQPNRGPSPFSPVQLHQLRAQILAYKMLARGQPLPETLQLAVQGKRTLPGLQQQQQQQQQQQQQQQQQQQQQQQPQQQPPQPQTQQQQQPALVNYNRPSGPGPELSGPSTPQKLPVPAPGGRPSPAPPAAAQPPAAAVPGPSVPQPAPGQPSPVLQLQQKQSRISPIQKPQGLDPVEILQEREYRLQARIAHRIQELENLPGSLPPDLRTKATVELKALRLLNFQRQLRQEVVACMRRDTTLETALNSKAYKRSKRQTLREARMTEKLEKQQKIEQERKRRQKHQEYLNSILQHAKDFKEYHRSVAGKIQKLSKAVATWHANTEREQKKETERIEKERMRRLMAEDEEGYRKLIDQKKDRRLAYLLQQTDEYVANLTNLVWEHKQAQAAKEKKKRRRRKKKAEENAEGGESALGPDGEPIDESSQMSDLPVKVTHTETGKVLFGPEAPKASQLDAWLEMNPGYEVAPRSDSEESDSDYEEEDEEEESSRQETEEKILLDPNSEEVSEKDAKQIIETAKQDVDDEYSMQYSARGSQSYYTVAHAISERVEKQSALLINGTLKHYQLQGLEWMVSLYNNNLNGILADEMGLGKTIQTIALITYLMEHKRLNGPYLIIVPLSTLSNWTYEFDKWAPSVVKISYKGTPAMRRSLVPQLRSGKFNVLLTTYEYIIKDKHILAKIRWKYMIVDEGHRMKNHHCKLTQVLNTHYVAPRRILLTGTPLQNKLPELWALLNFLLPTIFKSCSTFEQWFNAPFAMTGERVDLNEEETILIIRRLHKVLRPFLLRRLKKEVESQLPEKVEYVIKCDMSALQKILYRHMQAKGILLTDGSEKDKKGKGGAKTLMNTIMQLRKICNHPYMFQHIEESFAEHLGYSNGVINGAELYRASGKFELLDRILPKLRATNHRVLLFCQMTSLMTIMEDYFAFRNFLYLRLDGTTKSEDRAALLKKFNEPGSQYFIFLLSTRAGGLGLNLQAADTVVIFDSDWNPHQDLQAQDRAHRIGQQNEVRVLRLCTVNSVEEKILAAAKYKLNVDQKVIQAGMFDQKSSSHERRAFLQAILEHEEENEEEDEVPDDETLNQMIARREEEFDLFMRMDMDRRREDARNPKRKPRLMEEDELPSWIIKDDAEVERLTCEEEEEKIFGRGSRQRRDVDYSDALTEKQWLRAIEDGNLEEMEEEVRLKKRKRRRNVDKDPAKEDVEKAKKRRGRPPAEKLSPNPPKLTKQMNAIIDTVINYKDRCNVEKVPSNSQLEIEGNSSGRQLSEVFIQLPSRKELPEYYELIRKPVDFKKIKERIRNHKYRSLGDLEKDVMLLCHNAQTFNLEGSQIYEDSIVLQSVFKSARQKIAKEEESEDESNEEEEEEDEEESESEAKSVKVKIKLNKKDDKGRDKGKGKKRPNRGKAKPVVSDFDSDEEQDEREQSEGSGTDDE

Turning to `Cc1ncsc1-c1ccc([C@H](C)NC(=O)[C@@H]2C[C@@H](O)CN2C(=O)[C@@H](c2cc(-c3cnc(N4CC(c5cc(F)c6cc(-c7ccccc7O)nnc6c5)C4)nc3)no2)C(C)C)cc1` [Compound 28], in test [1], the Dmax was less than 50%. Moreover, in test [2], the DC50 was greater than 0.01 µM and the “BRM HiBit Degradation Maximum (%)” value was “A (“A” indicates maximum degradation ≥75%)”.
In the same order, the values of `Cc1ncsc1-c1ccc([C@H](C)NC(=O)[C@@H]2C[C@@H](O)CN2C(=O)[C@@H](c2cc(-c3cnc(N4CC[C@@H](c5ccc6cc(-c7ccccc7O)nnc6c5)C4)nc3)no2)C(C)C)cc1` [Compound 20] are less than 50%, less than 0.01 µM and “A (“A” indicates maximum degradation ≥75%)”.
Take `Cc1ncsc1-c1ccc([C@H](C)NC(=O)[C@@H]2C[C@@H](O)CN2C(=O)[C@@H](c2cc(N3CC4(CCC(c5ccc6nnc(-c7ccccc7O)cc6c5)CC4)C3)no2)C(C)C)cc1` [Compound 62, (2S,4R)-4-hydroxy-1-((R)-2-(3-(7-(3-(2-hydroxyphenyl)cinnolin-6-yl)-2-azaspiro[3.5]nonan-2-yl)isoxazol-5-yl)-3-methylbutanoyl)-N-((S)-1-(4-(4-methylthiazol-5-yl)phenyl)ethyl)pyrrolidine-2-carboxamide]: in test [1], the DC50 was greater than 0.01 µM and the Dmax was greater than 75%. Besides, in test [2], the DC50 is less than 0.01 µM and the “BRM HiBit Degradation Maximum (%)” value is on record as “A (“A” indicates maximum degradation ≥75%)”.
Regarding `Cc1ncsc1-c1ccc([C@H](C)NC(=O)[C@@H]2C[C@@H](O)CN2C(=O)[C@@H](c2cc(N3CC4(CN(c5ccc6nnc(-c7ccccc7O)cc6c5)CCO4)C3)no2)C(C)C)cc1` [Compound 129, (2S,4R)-4-hydroxy-1-((R)-2-(3-(8-(3-(2-hydroxyphenyl)cinnolin-6-yl)-5-oxa-2,8-diazaspiro[3.5]nonan-2-yl)isoxazol-5-yl)-3-methylbutanoyl)-N-((S)-1-(4-(4-methylthiazol-5-yl)phenyl)ethyl)pyrrolidine-2-carboxamide], the Dmax in test [1] was less than 50%. In test [2], the DC50 was less than 0.01 µM and the “BRM HiBit Degradation Maximum (%)” value is “A (“A” indicates maximum degradation ≥75%)”.
Taken in the same sequence, the figures for `CC(C)[C@@H](C(=O)N1C[C@H](O)C[C@H]1C(=O)N[C@@H](C)c1ccccc1)c1cc(N2CC3(CN(c4ccc5cc(-c6ccccc6O)nnc5c4)C3)C2)no1` [Compound 85, (2S,4R)-4-hydroxy-1-((R)-2-(3-(6-(3-(2-hydroxyphenyl)cinnolin-7-yl)-2,6-diazaspiro[3.3]heptan-2-yl)isoxazol-5-yl)-3-methylbutanoyl)-N-((S)-1-phenylethyl)pyrrolidine-2-carboxamide] were less than 50%, less than 0.01 µM and “A (“A” indicates maximum degradation ≥75%)”.
Take `Cc1nc(N2CCC(c3ccc4cc(-c5ccccc5O)nnc4c3)CC2)ccc1-c1cc([C@H](C(=O)N2C[C@H](O)C[C@H]2C(=O)N[C@@H](C)c2ccc(-c3scnc3C)cc2)C(C)C)on1` [Compound 80, (2S,4R)-4-hydroxy-1-((R)-2-(3-(6-(4-(3-(2-hydroxyphenyl)cinnolin-7-yl)piperidin-1-yl)-2-methylpyridin-3-yl)isoxazol-5-yl)-3-methylbutanoyl)-N-((S)-1-(4-(4-methylthiazol-5-yl)phenyl)ethyl)pyrrolidine-2-carboxamide]: in test [1], the DC50 was greater than 0.01 µM and the Dmax is greater than 75%. Further, in test [2], the DC50 is less than 0.01 µM and the “BRM HiBit Degradation Maximum (%)” value was “A (“A” indicates maximum degradation ≥75%)”.

For the origin of these results see US20260193264A1, “BENZOYPARAZINE PYRAZINES AND THEIR USES” (FOGHORN THERAPEUTICS INC., priority 2022, published 2026).
